Here are results for 9 compounds from PubChem BioAssay AID588844 (Broad Institute, 2011).

Active and inactive are the calls of the source. No rule for the calls is given here.

System in one test: not listed separately
Kind of test: HMLE_shECad cancer stem cell-like viability inhibition, dose response, CellTiter-Glo luminescence, dry powder, set 2 (AID 588844). Particulars: HMLE_shECad viability, CellTiter-Glo luminescence, 72 h; at 32 µM (top of the series). For orientation: Cellular ATP, detected with luciferase, serves as a proxy for viable cell number.
Take `Cc1ccc(/C=C/C(=O)NC2=NCCS2)cc1`: the remaining viability fraction was 75.7% (inactive).

For the compound `COc1ccc(/C=C/C(=O)NC2=NCCS2)c(OC)c1`, the remaining viability fraction is 70.8% (inactive). Still for that read-out and setting: for `Cc1csc(NC(=O)c2ccc(COc3cccc(F)c3)o2)n1` the value was 65.6% (inactive).

Another test concerns HMLE_shECad viability, CellTiter-Glo luminescence, 72 h. The test is described as above.
Details: not given
With `Cc1csc(NC(=O)c2ccc(COc3ccccc3F)o2)n1`, the half-maximal activity concentration (AC50) (in general, the concentration giving half of the maximal activity seen) was 2430 nM.

As for `CC(C)c1ccc(/C=C/C(=O)NC2=NCCS2)cc1`, the AC50 is 300 nM. For `O=C(/C=C/c1ccc(-c2ccccc2)cc1)NC1=NCCS1`, the AC50 is 625 nM. In the case of `Cc1csc(NC(=O)c2ccc(COc3cccc(Cl)c3)o2)n1`, the half-maximal activity concentration (AC50) was 3000 nM.

For the compound `O=C(NC1CCCC1)c1ccc(COc2ccccc2)o1`, the AC50 was 23500 nM.

Regarding `Cc1csc(NC(=O)c2ccc(COc3ccccc3)o2)n1`, the half-maximal activity concentration (AC50) is 70 nM.
